Measurements as given in paper PMC7942396, “Drug Repurposing Screen for Compounds Inhibiting the Cytopathic Effect of SARS-CoV-2” (Frontiers in Pharmacology, 2021).
Like-named read-outs stand apart in the source and are kept apart here.

Experiments:
[1] = system: SARS-CoV-2 (USA_WA1/2020); test: microbe, parasite or virus in culture; type: cell-based; conditions: for EC50: read-out: CPE EC50
[2] = system: Vero E6 cells; conditions: Vero E6 cells without virus; for CC50: read-out: Cytotox CC50
[3] = SARS-CoV-2 CPE assay, Vero E6 cells, confirmed anti-SARS-CoV-2 compounds
[4] = SARS-CoV-2 CPE assay, Vero E6 cells, efficacy
[5] = SARS-CoV-2 CPE assay, Vero E6 cells
[6] = […], DMSO 0%, no-virus control 100%, hit confirmation

| SMILES | EC50 [1, 3] [µM] | CPE % Efficacy [1, 4] [%] | % Cytotox ([2]; cytotoxicity counter-assay) [%] | CC50 ([2]; cytotoxicity counter-assay) [µM] | CPE % Efficacy [1, 5] [%] | EC50 [1, 5] [µM] | CPE % Efficacy [1, 6] [%] | EC50 [1] [µM] | % Cytotox ([2]; 72 h) [%] |
| --- | --- | --- | --- | --- | --- | --- | --- | --- | --- |
| C(=N\Nc1nc(Nc2ccccc2)nc(N2CCOCC2)n1)/c1c[nH]c2ccccc12 [MLS000543798] | 0.11 | 87.4 | 33.6 | 0.45 |  |  |  |  |  |
| Cn1cc(-c2ccncc2)c(-c2ccc(OCc3ccc4ccccc4n3)cc2)n1 [MP-10] | 4.47 | 31.1 | 85.1 |  |  |  |  |  |  |
| COc1cc(C(=O)NC(=N)Nc2ccc(C)c(NC(=O)c3ccc(-c4ccccc4)cc3)c2)cc(OC)c1OC [MRT-83] |  |  | 37.9 | 10 | 56.4 | 11.2 |  |  |  |
| COc1ccc2c(c1)c(CCN(C)C)cn2S(=O)(=O)c1ccccc1.O=C(O)C(=O)O [MS 245 oxalate] |  |  | 20.5 | 12.6 | 76.1 | 12.6 |  |  |  |
| COc1ccc(C(C)(C)C)cc1CN[C@H]1C2CCN(CC2)[C@H]1C(c1ccccc1)c1ccccc1 [Maropitant] | 3.55 | 83.7 | 108.2 |  |  |  |  |  |  |
| CN(C)CCC=C1c2ccccc2C(C)(C)c2ccccc21.Cl [Melitracen hydrochloride, reference compound] |  |  |  |  |  |  | 97.1 | 10 | <30 |
| CN1CN(c2ccccc2)C2(CCN(CCCC(=O)c3ccc(F)cc3)CC2)C1=O.Cl [N-Methylspiperone hydrochloride, reference compound] |  |  |  |  |  |  | 80.0 | 4.5 | <30 |
| O=C(CCn1cnc2onc(-c3ccc(F)cc3)c2c1=O)Nc1cccc(C(F)(F)F)c1 [NCGC00126519] | 11.2 | 64.8 | 65.0 | 10 |  |  |  |  |  |
| O=C(NCCCN1CCN(c2ccccc2F)CC1)c1ccc2nc(Cc3ccccc3)oc2c1 [NCGC00133175] |  |  | 25.5 | 15.8 | 95.1 | 14.1 |  |  |  |
| C=C1C(=O)O[C@H]2C3=C(C)CCC[C@]3(C)C(=O)C[C@@H]12 [NCGC00168931] | 2.24 | 40.6 | 69.6 | 10 |  |  |  |  |  |
| C/C=C(\C)C(=O)O[C@H]1CC2C(=C1C)[C@H]1OC(=O)[C@](C)(O)[C@]1(O)[C@H](OC(=O)CCC)C[C@@]2(C)OC(C)=O (some centres unmarked) [NCGC00169033] | 2.77 | 63.3 | 48.4 | 4.39 |  |  |  |  |  |
| C/C=C(\C)C(=O)O[C@H]1C=C(CO)C(=O)[C@H](OC(C)=O)[C@H]1C(C)C [NCGC00180769] | 3.55 | 30.1 | 103.1 | 10 |  |  |  |  |  |
| Cn1nnnc1Sc1ncnc2scc(-c3cccc(S(C)(=O)=O)c3)c12 [NCGC00182390] | 4.47 | 57.8 | 63.9 | 8.91 |  |  |  |  |  |
| COc1cc2nc(N3CCCCC3)nc(NC3CCN(Cc4ccccc4)CC3)c2cc1OC [NCGC00185849] | 3.98 | 66.6 | 110.3 | 10 |  |  |  |  |  |
| COc1cc2nc(N3CCCCC3)nc(NC3CCN(C)CC3)c2cc1OC [NCGC00185859] | 3.55 | 94.8 | 69.3 | 10 |  |  |  |  |  |
| CNC(=O)c1ccc2c(C(=Nc3cccc(CN(C)C)c3)c3ccccc3)c(O)[nH]c2c1 [NCGC00346543] |  |  | 22.6 |  | 94.9 | 12.6 |  |  |  |
| C=C1Cc2c(Cl)cc3[nH]c4c5c3c2[C@@]2(O)[C@@H]1C[C@@H]2C(C)(C)O[C@H]5C1CC[C@@]2(O)[C@@]35O[C@@H]3[C@H]3OC(C)(C)[C@H]3O[C@H]5CC[C@]2(C)[C@@]41C (some centres unmarked) [NCGC00380694] | 2.99 | 50.6 | 19.8 | 4.74 |  |  |  |  |  |
| CCC(C)C(=O)OC12C(OC(C)=O)C(C)C3(O)C(C=C(CO)CC4(O)C(=O)C(C)=CC43)C1C2(C)C (centres unmarked) [NCGC00380715] | 0.98 | 45.0 | 0.0 |  |  |  |  |  |  |
| C/C=C(\C)C(=O)OC1C(C)C2(O)C3C=C(C)C(=O)C3CC(CO)=CC2C2C(C)(C)C12OC(C)=O (centres unmarked) [NCGC00380717] | 0.78 | 67.0 | 9.9 | 0.35 |  |  |  |  |  |
| CCC(C)C(=O)OC1CC(O)C23C4OCC5(C(O)CC2C1(C)C(O)O4)C3C(=O)CC1(C)C(c2ccoc2)CC2OC215 (centres unmarked) [NCGC00381227] | 3.91 | 82.9 | 53.1 | 7.8 |  |  |  |  |  |
| C[C@@H]1O[C@@H](O[C@H]2[C@H](OC(=O)[C@]34CCC(C)(C)C[C@H]3C3=CCC5[C@@]6(C)CC[C@H](O[C@@H]7O[C@H](CO[C@@H]8OC[C@H](O)[C@H](O)[C@H]8O)[C@@H](O)[C@H](O)[C@H]7O)C(C)(C)C6CC[C@@]5(C)[C@]3(C)C[C@H]4O)OC[C@@H](O)[C@@H]2O)[C@H](O)[C@H](O)[C@H]1O[C@@H]1OC[C@H](O)[C@H](O[C@@H]2OC[C@@H](O)[C@H](O)[C@H]2O)[C@H]1O (some centres unmarked) [NCGC00384864] | 0.6 | 46.4 | 58.6 | 1.91 |  |  |  |  |  |
| C[C@@H]1O[C@@H](O[C@@H]2[C@@H](O)[C@H](O[C@@H]3[C@@H](O)[C@@H](O)[C@H](O[C@H]4[C@H](OC(=O)[C@]56CCC(C)(C)C[C@H]5C5=CCC7[C@@]8(C)C[C@H](O)[C@H](O[C@@H]9O[C@@H](C)[C@H](O)[C@@H](O)[C@H]9O)[C@@](C)(CO)C8CC[C@@]7(C)[C@]5(C)C[C@H]6O)O[C@H](C)[C@H](O)[C@@H]4O)O[C@H]3C)OC[C@H]2O)[C@H](O)[C@H](O)[C@H]1O (some centres unmarked) [NCGC00385241] | 0.85 | 123.9 | 98.7 | 1.91 |  |  |  |  |  |
| C[C@@H]1O[C@@H](O[C@H]2[C@H](OC(=O)[C@]34CCC(C)(C)C[C@H]3C3=CCC5[C@@]6(C)C[C@H](O)[C@H](O[C@@H]7O[C@H](CO[C@@H]8OC[C@H](O)[C@H](O)[C@H]8O)[C@@H](O)[C@H](O)[C@H]7O)C(C)(C)C6CC[C@@]5(C)[C@]3(C)C[C@H]4O)OC[C@@H](O)[C@@H]2O)[C@H](O)[C@H](O[C@@H]2OC[C@](O)(CO)[C@H]2O)[C@H]1O[C@@H]1OC[C@H](O)[C@H](O[C@@H]2OC[C@@H](O)[C@H](O)[C@H]2O)[C@H]1O (some centres unmarked) [NCGC00385321] | 2.4 | 105.7 | 35.4 | 2.4 |  |  |  |  |  |
| C[C@H]1CC[C@@]2(OC1)O[C@H]1CC3[C@@H]4CC[C@@H]5C[C@@H](O[C@@H]6O[C@H](CO)[C@@H](O[C@@H]7O[C@H](CO[C@@H]8OC[C@@H](O)[C@H](O)[C@H]8O)[C@@H](O[C@@H]8O[C@H](CO)[C@H](O)[C@H](O)[C@H]8O)[C@H](O)[C@H]7O)[C@H](O)[C@H]6O)CC[C@]5(C)C4CC[C@]3(C)[C@H]1[C@@H]2C (some centres unmarked) [NCGC00385658] | 3.03 | 68.4 | 78.8 | 3.4 |  |  |  |  |  |
| C[C@@H]1O[C@@H](O[C@H]2[C@H](OC(=O)[C@]34CCC(C)(C)C[C@H]3C3=CCC5[C@@]6(C)CC[C@H](O[C@@H]7O[C@H](CO[C@@H]8OC[C@H](O)[C@H](O)[C@H]8O)[C@@H](O)[C@H](O)[C@H]7O)C(C)(C)C6CC[C@@]5(C)[C@]3(C)C[C@H]4O)OC[C@@H](O)[C@@H]2O)[C@H](O)[C@H](O[C@@H]2OC[C@](O)(CO)[C@H]2O)[C@H]1O[C@@H]1OC[C@H](O)[C@H](O[C@@H]2OC[C@@H](O)[C@H](O)[C@H]2O)[C@H]1O (some centres unmarked) [NCGC00385743] | 0.95 | 59.8 | 67.2 | 2.14 |  |  |  |  |  |
| CC(=O)OC1[C@H]2[C@@H](C[C@@H](C)[C@@H]3C=CC(=O)[C@@]13C)OC(=O)[C@@H]2C (some centres unmarked) [NCGC00385908] | 7.08 | 67.1 | 44.4 | 11.2 |  |  |  |  |  |
| CC(C)(C)c1ccc(C(=O)Nc2cc(Cl)c(Br)cc2C(=O)O)cc1 [NCGC00386831] | 11.2 | 32.0 | 78.8 | 10 |  |  |  |  |  |
| Cc1cc(N2CCN(C(=O)Oc3ccc(-c4ccccc4)cn3)CC2)c2ccccc2n1 [NCGC00386928] |  |  | 68.1 | 12.6 | 63.4 | 12.6 |  |  |  |
| CCCCOC(=O)c1ccnc2cc(C(OCCN3CCCCC3)c3ccccc3C)sc12 (centres unmarked) [NCGC00481621] | 10 | 88.9 | 35.5 | 12.6 |  |  |  |  |  |
